Biological target: T1, human subtype 5 somatostatin receptor (Homo sapiens, UniProt P35346)
T1 construct: host or cells: CHO cell line, stably transfected; membranes used
Experiment: radioligand replacement (binding) assay, membranes of CHO cells expressing human SSTR5, 125I-labeled 11-Tyr somatostatin-14 tracer
Conditions: CHO cell membranes, 0.05 nM 125I-labeled 11-Tyr somatostatin-14, 1 h at rt; Ki calculated from IC50 by Cheng-Prussoff equation; read-out: hSSTR5 Ki
Protocol: A CHO cell line stably transfected with a plasmid encoding the human subtype 5 somatostatin receptor (GenBank accession number D16827) was obtained from Euroscreen. Cells were cultured and used for binding and functional assays.
Membranes of these cells were prepared by sonication in the presence of protease inhibitors and subsequent fractionating centrifugation. The protein concentration in the membrane preparation was determined using a commercial kit (BCA kit, Pierce, USA). Membranes were stored at −80° C. until use. After thawing membranes were diluted in assay buffer (50 mM Tris-HCl at pH 7.4, 5 mM MgCl2 and 0.20% BSA) and subjected to dounce homogenization.
For binding studies, 0.1 mL membrane suspension, corresponding to approximately 6×10^−15 mol receptor, was incubated for 1 h at rt with 0.05 nM ^125I-labeled tracer (11-Tyr somatostatin-14, Perkin-Elmer) and either test compound in varying concentrations or, for the determination of non-specific binding, 0.001 mM non-labeled somatostatin-14. The incubation was stopped by filtration through GF/B glassfiber filters and washing with ice-cold wash buffer (50 mM Tris-HCl at pH 7.4). The bound radioactivity was measured after application of a scintillation cocktail (Microscint 40) and expressed as disintegrations per minute (dpm).
The receptor concentration was determined in a prior saturation experiment where a fixed, arbitrary amount of membranes was incubated with a concentration range of radio-labeled tracer. This allows estimating the total number of specific binding sites per amount of protein (i.e., Bmax), typically between 1 and 5 pmol/mg.
The concentration of the test compound required to result in half maximal inhibition of binding of the radio-labeled tracer (IC50) was estimated from a concentration-versus-dpm graph. The binding affinity (Ki) was calculated from the IC50 by applying the Cheng-Prussoff equation for single binding sites.

T1 sequence (P35346 whole entry): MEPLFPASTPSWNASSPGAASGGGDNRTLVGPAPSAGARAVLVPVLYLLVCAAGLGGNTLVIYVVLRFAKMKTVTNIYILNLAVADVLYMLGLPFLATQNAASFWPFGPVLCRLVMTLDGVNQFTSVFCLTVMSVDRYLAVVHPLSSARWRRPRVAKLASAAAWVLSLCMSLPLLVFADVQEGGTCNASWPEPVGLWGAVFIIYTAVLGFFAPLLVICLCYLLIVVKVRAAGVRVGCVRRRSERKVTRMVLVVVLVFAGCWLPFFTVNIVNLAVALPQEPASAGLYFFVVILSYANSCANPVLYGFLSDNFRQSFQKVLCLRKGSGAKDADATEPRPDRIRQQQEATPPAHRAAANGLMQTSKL

| SMILES | Ki [nM] |
| --- | --- |
| CCOc1cc(CN2CCC(Nc3nc(-c4ccccc4)no3)CC2)ccc1C [Example 1, [1-(3-Ethoxy-4-methyl-benzyl)-piperidin-4-yl]-(3-phenyl-[1,2,4]oxadiazol-5-yl)-amine] | 74 |
| CCOc1cc(CN2CCC(Nc3nc(-c4ccccc4)no3)CC2)ccc1Cl [Example 2, [1-(4-Chloro-3-ethoxy-benzyl)-piperidin-4-yl]-(3-phenyl-[1,2,4]oxadiazol-5-yl)-amine] | 91 |
| COc1ccc(CN2CCC(Nc3nc(-c4ccccc4)no3)CC2)cc1OCC(C)C [Example 5, [1-(3-Isobutoxy-4-methoxy-benzyl)piperidin-4-yl]-(3-phenyl-[1,2,4]oxadiazol-5-yl)-amine] | 116 |
| CCOc1cc(CN2CCC(Nc3nc(-c4ccccc4)no3)CC2)cc2c1OC(C)(C)C=C2 [Example 7, [1-(8-Ethoxy-2,2-dimethyl-2H-chromen-6-ylmethyl)-piperidin-4-yl]-(3-phenyl-[1,2,4]oxadiazol-5-yl)-amine] | 449 |
| CCOc1cc(CN2CCC(Nc3nc(-c4ccccc4)no3)CC2)cc(OCC)c1N [Example 9, [1-(4-Amino-3,5-diethoxy-benzyl)-piperidin-4-yl]-(3-phenyl-[1,2,4]oxadiazol-5-yl)-amine] | 41 |
| CCOc1cc(CN2CCC(Nc3nc4ccccc4n3C)CC2)ccc1Cl [Example 11, [1-(4-Chloro-3-ethoxy-benzyl)-piperidin-4-yl]-(1-methyl-1H-benzoimidazol-2-yl)-amine] | 42 |
| CC(C)Oc1cc(CN2CCC(Nc3nc4ccccc4n3C)CC2)cc(OC(C)C)c1 [Example 13, [1-(3,5-Diisopropoxy-benzyl)-piperidin-4-yl]-(1-methyl-1H-benzoimidazol-2-yl)-amine] | 35 |
| CCOc1cc(CN2CCC(Nc3nc(-c4cccc(OC)c4)co3)CC2)cc(OCC)c1-c1ccc(F)cc1 [Example 15, [1-(2,6-Diethoxy-4′-fluoro-biphenyl-4-ylmethyl)-piperidin-4-yl]-[4-(3-methoxy-phenyl)-oxazol-2-yl]-amine] | 48 |
| CCOc1cc(CN2CCC(Nc3nc(-c4ccc(F)cc4)co3)CC2)cc(OCC)c1F [Example 19, [1-(3,5-Diethoxy-fluoro-benzyl)-piperidin-4yl]-[4-(4-fluoro-phenyl)-oxazol-2-yl]-amine] | 26 |
| CCOc1cc(CN2CCC(Nc3nc(-c4ccccc4)co3)CC2)cc(OCC)c1-c1ccc(F)cc1 [Example 24] | 27 |
| CCOc1cc(CN2CCC(Nc3nc(-c4ccc(Cl)cc4)co3)CC2)cc(OCC)c1Cl [Example 27, [1-(4-Chloro-3,5-diethoxy-benzyl)-piperidin-4-yl]-[4(4-chloro-phenyl)oxazol-2-yl]-amine] | 8 |
| CCOc1cc(CN2CCC(Nc3ncc(-c4ccccc4)o3)CC2)cc(OCC)c1-c1ccc(F)cc1 [Example 33, [1-(2,6-Diethoxy-4′-fluoro-biphenyl-4-ylmethyl)-piperidin-4-yl]-(5-phenyl-oxazol-2-yl)-amine] | 28 |
| CCOc1cc(CN2CCC(Nc3ncc(-c4ccccc4)o3)CC2)cc(OCC)c1Cl [Example 37, [1-(4-Chloro-3,5-diethoxy-benzyl)-piperidin-4-yl]-(5-phenyl-oxazol-2-yl)amine] | 12 |
| CCOc1cc(CN2CCC(Nc3ncc(-c4ccc(OC)cc4)o3)CC2)cc(OCC)c1-c1ccc(F)cc1 [Example 40, [1-(2,6-Diethoxy-4′-fluoro-bipehenyl-4-ylmethyl)-piperidin-4-yl]-[5-(4-methoxy-phenyl)-oxazol-2-yl]-amine] | 46 |
| CCOc1cc(CN2CCC(Nc3ncc(-c4ccccc4)o3)CC2)cc(OCC)c1C [Example 46, [1-(3,5-Diethoxy-4-methyl-benzyl)-piperidin-4-yl]-(5-phenyl-oxazol-2-yl)-amine] | 12 |
| CCOc1cc(CN2CCC(Nc3nc(-c4ccc(C(F)(F)F)cc4)co3)CC2)cc(OCC)c1-c1ccc(F)cc1 [Example 49] | 73 |

Reference: patent publication US20080306116A1, “ARYLOXAZOLE, ARYLOXADIAZOLE AND BENZIMIDAZOLE DERIVATIVES” (priority 2007, published 2008)
